# According to patent US10073082B2, “Proteasome inhibition assay and methods of use” (UNIVERSITY HEALTH NETWORK, priority 2013, dated 2018):
# Peptide text beside a SMILES is read from it. * marks the point of attachment. Cbz = O=C(OCc1ccccc1)*
# B1: CD40L: IκB degradation agonist (protein, UniProt P29965 113-261, looked up)
# CD40 ligand, soluble form: MQKGDQNPQIAAHVISEASSKTTSVLQWAEKGYYTMSNNLVTLENGKQLTVKRQGLYYIYAQVTFCSNREASSQAPFIASLCLKSPGRFERILLRAANTHSSAKPCGQQSIHLGGVFELQPGASVFVNVTDPSQVSHGTGFTSFGLLKL
# Experiments:
# Type in all cases: cell-based, human
# [1] = system: peripheral blood lymphocytes; assay: IκB degradation agonists in whole blood: IκB degradation and signaling pathway activation in lymphocytes; settings: for Pathways Activated: Target Cell Population: Lymphocytes (subpopulation)
# Protocol: (§1) Whole blood samples from normal human donors were collected. 100 μL aliquots of the whole blood were inserted into the bottom of 12×75 mm tubes. In order to reduce the potential for contamination of the sample with unfixed cells, blood was removed from the side of the tubes with a cotton swab. 1-2 μL of a proteasome effector was added to a first portion of the tubes and these tubes were incubated for 2 hours at 37° C. in a water bath. In this example, the proteasome effector was Bortezomib or MG-132, both proteasome inhibitors. Following pretreatment with the proteasome effector, 2 μL of […] stock solution (100 ng) of an IκB degradation agonist was added to the tubes and the tubes were incubated from 1 minute to 60 minutes at 37° C. in a water bath. In this example, the agonist was lipopolysaccharide (LPS). A second portion of the tubes were treated with the IκB degradation agonist and no proteasome effector. 2 μL of an IκB degradation agonist was added to these tubes and the tubes were incubated from 1 minute to 60 minutes as described above. For control tubes, 2 μL of phosphate buffered saline (PBS) was added to the tubes and the tubes were incubated as described above.
# (§2) Following incubation, the cells were fixed and permeabilized with a PerFix-P® kit (Beckman Coulter, Inc., Brea. Calif.) according to the manufacturer's instructions. The fixed and permeabilized cells were then washed with 2 mL of Wash Buffer (PBS (w/o Ca++/Mg++) with 2% fetal bovine serum (FBS), sterile filtered (0.22 μm filter)) in the tubes and centrifuged at 500×g for 4 minutes. The cell pellet was resuspended in 2 mL of cold (4° C.) Wash Buffer, centrifuged at 500×g for 4 minutes, and the supernatant was aspirated.
# (§3) Following the above wash steps, the fixed and permeabilized cells were resuspended in 100 μL of cold Wash Buffer comprising antibodies to specific intracellular antigens (e.g., signaling targets including P-ERK, P-Akt, P-p38, P-SAPK, P-S6, and antibodies to IκB). The antibodies were labeled with different fluorochromes (e.g. fluorophores) to facilitate their-individual measurement of the intracellular antigens. In order to target specific cell populations in the assay, antibodies capable of differentiating cell populations within the blood sample were also included in some of the tubes. For example, anti-CD14 antibodies were included to specifically label monocytes, anti-CD3 antibodies or anti-CD19 antibodies were included to specifically label T or B-cells respectively, and/or anti-CD38/CD138 antibodies were included to specifically label plasma cells. The cells were incubated with the antibodies for 30 minutes at room temperature and then the cells were washed in 2 mL of cold Wash Buffer and centrifuged as described above. The supernatant was aspirated and the cell pellet was resuspended in 350 μL of Resuspension Buffer (PerFix-P® kit) and analyzed on a flow cytometer (GALLIOS™) using a protocol with defined population gates and series of dual parameter histograms. A CD45-KO vs. SS dual parameter histogram was collected and a gate around the leukocyte population based on the CD45+ fluorescence and SS characteristics was drawn to exclude debris (CD45 negative events). A minimum of 2,500 CD14+ events were collected. A stop count region was set from the CD14-PC7 vs. SS histogram gated on monocytes. Dual parameter histograms gated on the appropriate populations were created to measure the populations of interest. The collected flow cytometric data was analyzed using KALUZA™ software.
# (§4) Phosphorylation of signaling pathways activated by TNF-α, including ERK, Akt, and the ribosomal S6 protein, was monitored together with the degradation of IκB in peripheral blood WBCs. Whole blood samples were treated, activated, and processed as described in Example 1 and the degradation of IκB in peripheral blood cells was monitored by flow cytometry as described in Example 1. The IκB degradation agonist used in this example was TNF-α. […]
# [2] = system: granulocytes; assay: IκB degradation agonists in whole blood: IκB degradation and signaling pathway activation in granulocytes; settings: Target Cell Population: Granulocytes
# Protocol: as §1, §2
# Following the above wash steps, the fixed and permeabilized cells were resuspended in 100 μL of cold Wash Buffer comprising antibodies to specific intracellular antigens (e.g., signaling targets including P-ERK, P-Akt, P-p38, P-SAPK, P-S6, and antibodies to IκB). The antibodies were labeled with different fluorochromes (e.g. fluorophores) to facilitate their-individual measurement of the intracellular antigens. […] The supernatant was aspirated and the cell pellet was resuspended in 350 μL of Resuspension Buffer (PerFix-P® kit) and analyzed on a flow cytometer (GALLIOS™) using a protocol with defined population gates and series of dual parameter histograms. A CD45-KO vs. SS dual parameter histogram was collected and a gate around the leukocyte population based on the CD45+ fluorescence and SS characteristics was drawn to exclude debris (CD45 negative events). […] The collected flow cytometric data was analyzed using KALUZA™ software.
# [3] = system: peripheral blood monocytes; assay: IκB degradation agonists in whole blood: IκB degradation and signaling pathway activation in monocytes; settings: for Pathways Activated: Target Cell Population: Monocytes
# Protocol: as §1, §2, §3, §4
# [4] = system: IκB in peripheral blood lymphocytes; assay: Flow cytometry assay, whole blood pretreated with effector: LPS induced degradation of IκB in lymphocytes; settings: whole blood pretreated with inhibitor, then LPS
# Protocol: (§5) The assay generally comprises treating whole blood with an IκB degradation agonist and/or proteasome effector, fixing the blood cells, permeabilizing the fixed bloods cells, treating the fixed and permeabilized cells with an alcohol treatment to unmask intracellular phosphor-epitopes, and then staining the treated cells with antibodies for flow cytometry analysis.
# (§6) Whole blood samples from normal human donors were collected. 100 μL aliquots of the whole blood were inserted into the bottom of 12×75 mm tubes. In order to reduce the potential for contamination of the sample with unfixed cells, blood was removed from the side of the tubes with a cotton swab. […]
# (§7) Following the above wash steps, the fixed and permeabilized cells were resuspended in 100 μL of cold Wash Buffer comprising antibodies to specific intracellular antigens (e.g., signaling targets including P-ERK, P-Akt, P-p38, P-SAPK, P-S6, and antibodies to IκB). […] The supernatant was aspirated and the cell pellet was resuspended in 350 μL of Resuspension Buffer (PerFix-P® kit) and analyzed on a flow cytometer (GALLIOS™) using a protocol with defined population gates and series of dual parameter histograms. A CD45-KO vs. SS dual parameter histogram was collected and a gate around the leukocyte population based on the CD45+ fluorescence and SS characteristics was drawn to exclude debris (CD45 negative events). […]
# [5] = system: P-Akt (P-Ser473) in peripheral blood monocytes; assay: Akt phosphorylation in LPS activated monocytes from pretreated whole blood
# Protocol: (§8) Whole blood samples from normal human donors were collected. 100 μL aliquots of the whole blood were inserted into the bottom of 12×75 mm tubes. In order to reduce the potential for contamination of the sample with unfixed cells, blood was removed from the side of the tubes with a cotton swab. 1-2 μL of a proteasome effector was added to a first portion of the tubes and these tubes were incubated for 2 hours at 37° C. in a water bath. In this example, the proteasome effector was Bortezomib or MG-132, both proteasome inhibitors. […]
# (§9) Following the above wash steps, the fixed and permeabilized cells were resuspended in 100 μL of cold Wash Buffer comprising antibodies to specific intracellular antigens (e.g., signaling targets including P-ERK, P-Akt, P-p38, P-SAPK, P-S6, and antibodies to IκB). […] The supernatant was aspirated and the cell pellet was resuspended in 350 μL of Resuspension Buffer (PerFix-P® kit) and analyzed on a flow cytometer (GALLIOS™) using a protocol with defined population gates and series of dual parameter histograms. A CD45-KO vs. SS dual parameter histogram was collected and a gate around the leukocyte population based on the CD45+ fluorescence and SS characteristics was drawn to exclude debris (CD45 negative events). […] The collected flow cytometric data was analyzed using KALUZA™ software. […]
# [6] = system: P-ERK (P-Thr202/P-Tyr204) in peripheral blood monocytes; assay: ERK phosphorylation in LPS activated monocytes from pretreated whole blood; settings: LPS activated monocytes
# Protocol: as §1, §2
# as §3, with “In order to target specific cell populations in the assay, antibodies capable of differentiating cell populations within the blood sample were also included in some of the tubes.” left out, “A stop count region was set from the CD14-PC7 vs. SS histogram gated on monocytes. Dual parameter histograms gated on the appropriate populations were created to measure the populations of interest.” left out
# (§10) Phosphorylation of signaling pathways activated by LPS, including ERK, Akt (activated by PI3 Kinase), and the ribosomal S6 protein (a marker of protein synthesis) were also monitored together with the degradation of IκB. […] The degradation of IκB in cells pretreated with MG-132 or GDC-0941 was monitored by flow cytometry as described in Example 1. […]
# [7] = system: IκB in granulocytes; assay: Flow cytometry assay, whole blood pretreated with effector: IκB levels in granulocytes after LPS; settings: whole blood pretreated with inhibitor, then LPS; 60 minutes time period
# Protocol: as §5, §6, §7
# [8] = system: IκB in peripheral blood monocytes; assay: Flow cytometry assay, whole blood pretreated with effector: LPS induced degradation of IκB in monocytes; settings: whole blood pretreated with compound, then LPS
# Protocol: as §1, with “2 μL of an IκB degradation agonist was added to these tubes and the tubes were incubated from 1 minute to 60 minutes as described above. For control tubes, 2 μL of phosphate buffered saline (PBS) was added to the tubes and the tubes were incubated as described above.” left out
# Following the above wash steps, the fixed and permeabilized cells were resuspended in 100 μL of cold Wash Buffer comprising antibodies to specific intracellular antigens (e.g., signaling targets including P-ERK, P-Akt, P-p38, P-SAPK, P-S6, and antibodies to IκB). […] The supernatant was aspirated and the cell pellet was resuspended in 350 μL of Resuspension Buffer (PerFix-P® kit) and analyzed on a flow cytometer (GALLIOS™) using a protocol with defined population gates and series of dual parameter histograms. A CD45-KO vs. SS dual parameter histogram was collected and a gate around the leukocyte population based on the CD45+ fluorescence and SS characteristics was drawn to exclude debris (CD45 negative events). […] The collected flow cytometric data was analyzed using KALUZA™ software.
# as §10
# [9] = system: P-S6 (P-Ser235/P-Ser236) in peripheral blood monocytes; assay: S6 phosphorylation in LPS activated monocytes from pretreated whole blood
# Protocol: as §8, §9
# [10] = pathway: Tpl-2 > ERK/MAP kinase
molecule,measurement,setting,value
TNFα,Pathways Activated,[1]; pathway: ERK/MAP kinase (Tpl-2),ERK/MAP kinase (Tpl-2)
same,Pathways Activated,[1]; pathway: IκB > NFκB,IκB > NFκB
same,Pathways Activated,[1]; pathway: PI3 kinase > Akt,PI3 kinase > Akt
same,Akt activation in lymphocytes,[1]; agonist alone,Neither Akt nor S6 was activated
same,ERK activation in lymphocytes,[1]; agonist alone,no apparent response
same,S6 activation in lymphocytes,[1]; agonist alone,Neither Akt nor S6 was activated
same,degradation of IκB in lymphocytes,[1]; agonist alone,induced degradation of IκB
same,time of peak loss of IκB after stimulation,[1]; lymphocytes,15 min
same,Pathways Activated,[2],P-p38 MAP kinase
same,Pathways Activated,[3]; pathway: IκB > NFκB,IκB > NFκB
same,Pathways Activated,[3]; pathway: PI3 kinase > Akt,PI3 kinase > Akt
same,Pathways Activated,[3]; [10],Tpl-2 > ERK/MAP kinase
same,Akt activation in monocytes,[3]; agonist alone,Neither Akt nor S6 was activated
same,ERK activation in monocytes,[3]; agonist alone,activated
same,S6 activation in monocytes,[3]; agonist alone,Neither Akt nor S6 was activated
same,degradation of IκB in monocytes,[3]; agonist alone,induced degradation of IκB
same,time of peak loss of IκB after stimulation,[3]; monocytes,10 min
CC(C)C[C@@H](C=O)NC(=O)[C@H](CC(C)C)NC(=O)[C@H](CC(C)C)NC(=O)OCc1ccccc1 [MG-132] (Cbz-Leu-Leu-Leu-aldehyde),LPS induced degradation of IκB in lymphocytes,[4],No significant degradation
same,Akt activation,[5],no effect
same,"""early"" (first) ERK phosphorylation peak",[6]; 2-4 minutes,not the first
same,"""late"" (second) ERK activation peak",[6]; about 10 minutes,inhibited
same,degradation of IκB in granulocytes,[7],No significant degradation
same,effect on LPS induced degradation of IκB in monocytes,[8],inhibited degradation of IκB
same,"MFI of the S6 phosphorylation response, lower than in the sample treated with only LPS",[9],approximately 50%
B1,Pathways Activated,[1]; pathway: IκB > NFκB (Tpl-2),IκB > NFκB (Tpl-2)
same,Pathways Activated,[1]; pathway: PI3 kinase > Akt,PI3 kinase > Akt
same,Pathways Activated,[1]; [10],Tpl-2 > ERK/MAP kinase
same,Akt activation in lymphocytes,[1]; agonist alone,not activated
same,ERK activation in lymphocytes,[1]; agonist alone,Neither ERK nor S6 were activated
same,S6 activation in lymphocytes,[1]; agonist alone,Neither ERK nor S6 were activated
same,decrease of the level of IκB,"[1]; lymphocytes, between 40 and 45 minutes post treatment",approximately 40%
same,Pathways Activated,[3]; pathway: IκB > NFκB,IκB > NFκB
same,Pathways Activated,[3]; pathway: P38 MAP kinase,P38 MAP kinase
same,Pathways Activated,[3]; [10],Tpl-2 > ERK/MAP kinase
same,Akt activation in monocytes,[3]; agonist alone,not activated
same,ERK activation in monocytes,[3]; agonist alone,low level of ERK activation
same,decrease of the level of IκB,"[3]; monocytes, between 6 and 15 minutes post treatment",approximately 60%
